# Measured values taken from patent US20130252988A1, “COMPOSITIONS AND METHODS FOR TREATING MYELOFIBROSIS” (TARGEGEN, INC., priority 2010, published 2013).
# “Also recorded” adds a separate entry of the source. Structures can show the parent of a compound that is named as a salt. Where two headings read alike, the source gives them in different places.
# What was measured:
# [1] = tested on: subjects with myelofibrosis (constitutional symptoms); test: Constitutional symptoms rated by subjects (early satiety, fatigue, night sweats, cough, pruritus); format: in vivo
# Description: The data here reflected changes from symptoms present at baseline. […] Severity was rated by subjects on a scale of 1-10: 0=absent; 1-3=mild; 4-7=moderate; 8-10=severe. Improved=downgrade to absent or to mild or moderate from more severe rating at baseline.
# Symptoms were categorized as “absent” (score=0), “mild” (score=1-3). “moderate” (score=4-7), or “severe” (score=8-10).
# bone marrow = test: Bone marrow histology (cellularity, fibrosis); format: in vivo, human
# Protocol: (§1) Responses were measured every 4 weeks per International Working Group for MPN Research and Treatment (IWG-MRT) criteria (Tefferi A et al., Blood 108:1497-1503, 2006). Assessment of bone marrow histology was performed at baseline and every 24 weeks of therapy. Changes in JAK2V617F allele burden in the granulocyte fraction of peripheral blood were measured as previously described (Kittur J et al., Cancer 109:2279-2284, 2007); the assessments were at baseline and every 4 weeks during the first 6 cycles, and every 6th cycle of therapy in the extension study.
# JAK2V617F allele burden = JAK2V617F allele burden in the granulocyte fraction of peripheral blood; format: in vivo, human
# Protocol: as §1
# [2] = Plasma pharmacokinetics of TG101348, non-compartmental analysis; format: in vivo, human; conditions: for AUC(0-t) / Cmax / half-life / Tmax: human, plasma, oral, multiple daily doses, Cycle 1, Day 28; for AUC(0-t) / Cmax / half-life: mean; for half-life: read-out: T1/2 (terminal half-life) (converted); for Tmax: median
# Protocol: The concentration-time curves of TG101348 in plasma were evaluated by a non-compartmental analysis (with the use of WinNonlin® software, version 5.2).
# [3] = MTD cohort, after 1 cycle (n=12)
# [4] = MTD cohort, after 1 cycle, 8 subjects at baseline
# [5] = MTD cohort, after 6 cycles (n=16)
structure (smiles),measurement,setting,value
"Cc1cnc(Nc2ccc(OCCN3CCCC3)cc2)nc1Nc1cccc(S(=O)(=O)NC(C)(C)C)c1 [TG101348, N-tert-butyl-3-[(5-methyl-2-{[4-(2-pyrrolidin-1-ylethoxy)phenyl]amino}pyrimidin-4-yl)amino]benzenesulfonamide dihydrochloride monohydrate]",Subjects who reported new onset of =1 symptom during the study,[1]; FIG. 4,18 subjects
same,Night sweats: subjects with complete resolution,"[1]; MTD cohort, after 1 cycle",64%
same,Cough: subjects reporting improvement,[1]; [3],75%
same,Cough: subjects with complete resolution,[1]; [3],67%
same,Pruritus: subjects with complete resolution,[1]; [4],50%
same,Pruritus: subjects with improvement,[1]; [4],75%
same,Early satiety: subjects with complete resolution,"[1]; MTD cohort, after 2 cycles (n=27)",56%
same,Night sweats: subjects with complete resolution,"[1]; MTD cohort, after 6 cycles (n=9)",89%
same,Fatigue: subjects reporting improvement,[1]; [5],63%
same,Fatigue: subjects with complete resolution,[1]; [5],25%
same,Effect on MF-associated constitutional symptoms,"[1]; early satiety, fatigue, cough, pruritus, night sweats, baseline versus last visit, dihydrochloride monohydrate","clinically significant benefit or resolution of constitutional symptoms; also recorded: able to improve the MF-associated constitutional symptoms; also recorded: remarkable activity against MF-associated constitutional symptoms, pruritus and cachexia"
same,Subjects with new-onset symptoms resolved by last follow-up visit,"[1]; of the 18 with new onset, FIG. 4",12 subjects
same,Pruritus in one subject,"[1]; subject with JAK2V617F-positive PMF, started at 680 mg/day",complete resolution of pruritus
same,Bone marrow fibrosis grade,"bone marrow; after 18 cycles, person, V617F negative PMF, 3+ at baseline, starting dose 240, follow-up 440 mg/day",0
same,Bone marrow cellularity,"bone marrow; after 18 cycles, person, V617F negative PMF, 60% at baseline, starting dose 30, follow-up 520 mg/day",5-10%
same,BM cellularity and reticulin fibrosis with extended treatment,bone marrow; preliminary observations,reduction in BM cellularity and reticulinfibrosis
same,Subjects exhibiting no change in allele burden,"JAK2V617F allele burden; 12 cycles, 100% allele burden at baseline",2
same,Median JAK2V617F allele burden,"JAK2V617F allele burden; 23 subjects with baseline >20% (baseline median 60%), after 6 cycles, range 4%-100%",31%
same,Median JAK2V617F allele burden,"JAK2V617F allele burden; 23 subjects with baseline >20% (baseline median 60%), after 12 cycles, range 7%-100%",32%
same,Patients with =50% reduction in VF allele burden,"JAK2V617F allele burden; 48 evaluable VF-positive patients (21 patients), last available follow-up",44%
same,Median decrease in granulocyte mutant allele burden,"JAK2V617F allele burden; 48 evaluable VF-positive patients, last available follow-up",48%
same,Median JAK2V617F allele burden,"JAK2V617F allele burden; all mutation-positive subjects (baseline median 20%), after 6 cycles, range 0%-100%",17%
same,Median JAK2V617F allele burden,"JAK2V617F allele burden; all mutation-positive subjects (baseline median 20%), after 12 cycles, range 0%-100%",19%
same,Change in JAK2V617F allele burden versus pre-study baseline,"JAK2V617F allele burden; all mutation-positive subjects (n=51), after 6 cycles (p=0.04) and 12 cycles (p=0.01)",significant decrease
same,Subjects with =50% decrease in JAK2V617F,"JAK2V617F allele burden; baseline >20%, 12 cycles, 7 subjects",39%
same,Subjects exhibiting an increase in allele burden,"JAK2V617F allele burden; baseline >20%, 12 cycles, Three subjects (7%, 18%, and 22%)",17%
same,Median decrease in JAK2V617F allele burden,"JAK2V617F allele burden; baseline >20%, 18 subjects who completed 12 cycles, range 29% to 82%",50%
same,Subjects exhibiting an increase in JAK2V617F allele burden,"JAK2V617F allele burden; baseline >20%, after 6 cycles, 4 subjects (18%, 21%, 30%, and 58%)",20%
same,Subjects with =50% decrease in JAK2V617F allele burden,"JAK2V617F allele burden; baseline >20%, after 6 cycles, 9 subjects",45%
same,Subjects exhibiting a decrease in JAK2V617F allele burden,"JAK2V617F allele burden; baseline >20%, after 6 cycles, 16 of 20 subjects",80%
same,Median decrease in JAK2V617F allele burden,"JAK2V617F allele burden; baseline >20%, after 6 cycles, 16 subjects, range 6% to 96%",61%
same,Patients with =50% reduction in VF allele burden,JAK2V617F allele burden; group who started treatment at =680 mg,48%
same,Change in JAK2V617F allele burden versus pre-study baseline,"JAK2V617F allele burden; subgroup with baseline allele burden >20% (n=23), after 6 cycles (p=0.002) and 12 cycles (p=0.002), dihydrochloride monohydrate",significant and even more pronounced decrease; also recorded: significant decrease
same,Subjects with decreased JAK2 V617F allele burden,"JAK2V617F allele burden; subjects with baseline >20% (N=22), FIG. 6",59%
same,Dose proportionality of plasma PK parameters (Cmax and AUC0-t),[2]; 30 to 800 mg/day,greater than dose-proportional increases
same,AUC(0-t),[2]; 30 mg/day (n = 3),807 ng·h/mL
same,Cmax,[2]; 30 mg/day (n = 3),81.8 ng/mL
same,half-life,[2]; 30 mg/day (n = 3),20.9 h
same,Tmax,[2]; 30 mg/day (n = 3),2 h
same,AUC(0-t),[2]; 60 mg/day (n = 3),2430 ng·h/mL
same,Cmax,[2]; 60 mg/day (n = 3),257 ng/mL
same,half-life,[2]; 60 mg/day (n = 3),15.7 h
same,Tmax,[2]; 60 mg/day (n = 3),1 h
same,AUC(0-t),[2]; 120 mg/day (n = 3),7650 ng·h/mL
same,Cmax,[2]; 120 mg/day (n = 3),557 ng/mL
same,half-life,[2]; 120 mg/day (n = 3),24.4 h
same,Tmax,[2]; 120 mg/day (n = 3),2 h
same,AUC(0-t),[2]; 240 mg/day (n = 3),26200 ng·h/mL
same,Cmax,[2]; 240 mg/day (n = 3),1800 ng/mL
same,half-life,[2]; 240 mg/day (n = 3),20.8 h
same,Tmax,[2]; 240 mg/day (n = 3),2 h
same,AUC(0-t),[2]; 360 mg/day (n = 3),23900 ng·h/mL
same,Cmax,[2]; 360 mg/day (n = 3),1720 ng/mL
same,half-life,[2]; 360 mg/day (n = 3),21.4 h
same,Tmax,[2]; 360 mg/day (n = 3),2 h
same,AUC(0-t),[2]; 520 mg/day (n = 3),61700 ng·h/mL
same,Cmax,[2]; 520 mg/day (n = 3),3890 ng/mL
same,half-life,[2]; 520 mg/day (n = 3),20.9 h
same,Tmax,[2]; 520 mg/day (n = 3),4 h
same,AUC(0-t),[2]; 680 mg/day (n = 27),55100 ng·h/mL
